What was measured:
[1] = test system: hematopoietic stem and progenitor cells in bone marrow; test: CBLB612 dose dependence of HSC number in mouse bone marrow (Example 6); type: in vivo, C57Bl/6NHsd mice; conditions: average, regimen per group b224: AMD3100 5 mg/kg SC 1 h before euthanasia, G-CSF four daily 0.1 mg/kg SC, 612 1.2 mg/kg SC 72 h
Protocol: (§1) The doses were calculated as intended dose/kg of average weight. The adjustment of a dose was accomplished by adjusting the concentration of an article for injection while keeping the injection volume constant.
(§2) According to Table 9, all groups received a single subcutaneous (SC) injection of 5 mg/kg of AMD3100 one hour before euthanasia. Control group 1 was injected with 5 mg/kg of AMD3100 only. Control group 2 was treated with four daily 0.1 mg/kg SC injections of G-CSF and on the fifth day the mice were injected with AMD3100. Control group 8 consisted of ICR mice and received the same treatment as Control group 2. Study groups 3, 4, 5, and 6 received a single SC injection of CBLB612 at 1.2; 0.4; 0.13; and 0.04 mg/kg doses, respectively, at 72 hours before blood collection. Group 7 received a single SC injection of 1.2 mg/kg CBLB612 at 24 hours before blood collection. Study group 9 was treated with four daily SC injections of 0.1 mg/kg G-CSF, a single SC injection of 1.2 mg/kg CBLB612 at 72 hours before blood collection, and a single SC injection of 5 mg/kg AMD3100 one hour before euthanasia at the fifth day after the first G-CSF injection.

[2] = test system: hematopoietic stem and progenitor cells in peripheral blood; test: CBLB612 dose dependence of HSC mobilization, peripheral blood of C57Bl mice (Example 6); type: in vivo; conditions: C57Bl/6NHsd mice, average, regimen per group b224: AMD3100 5 mg/kg SC 1 h before euthanasia, G-CSF four daily 0.1 mg/kg SC, 612 1.2 mg/kg SC 72 h
Protocol: as §1, §2

[3] = test system: hematopoietic stem and progenitor cells in bone marrow; test: Kinetics of HSC number after CBLB612, bone marrow of C57Bl mice (Example 7); type: in vivo
Protocol: (§3) The following mobilization of HSC and progenitor cells from the bone marrow to peripheral blood after CBLB612 injection. […] The doses were calculated as intended dose/kg of average weight. The adjustment of a dose was accomplished by adjusting the concentration of an article for injection while keeping the injection volume constant. According to Table 13, with the exception of the PBS control group 8, all groups received a 5 mg/kg dose of AMD3100 one hour before euthanasia. Control group 7 received a 6.5 mg/kg does of AMD3100. Negative control group 8 received a single SC injection of 200 μl PBS one hour before blood collection. Study groups 1-6 received single SC injections of CBLB12 at 2 mg/kg at different time points prior to blood collection. Positive control group 9 received four daily SC injections of 0.1 mg/kg G-CSF.

[4] = test system: hematopoietic stem and progenitor cells in peripheral blood; test: Kinetics of HSC mobilization after CBLB612, peripheral blood of C57Bl mice (Example 7); type: in vivo
Protocol: as §3

[5] = test system: C57/B6 mice irradiated with 9 Gy; test: Survival of lethally irradiated mice transfused with PWBC from treated donor mice (Example 2); type: in vivo; conditions: recipients irradiated 9 Gy, transfused with PWBC from donor mice treated with the compound; 5 mice at Day 0
Protocol: Blood transfused from lipopeptide-treated mice is capable of protecting recipient mice from the effects of radiation. […] To control for the effects of CBLB612, a group of mice was injected daily for four consecutive days with 100 μg/kg G-CSF, or with PBS.
Following the last injection, blood was collected from the treated mice by cardiac puncture and combined for each group (i.e., PBS negative controls, G-CSF positive controls, and CBLB612 experimental). Next, peripheral white blood cells (PWBC) were fractionated, and 200 μL of fractionated PWBC were injected into the tail veins of irradiated recipient mice. The amount of transfused PWBC was equivalent to the amount from one mouse.
Mice from the five test groups (i.e., PBS-, G-CSF-, and CBLB612-treated mouse blood transfusions, no transfusion, and bone marrow injection), previously irradiated with 9 Gy (a lethal dose for C57/B6 mice) for 2 h prior to transfusion, were observed and their survival rate assessed following transfusion.

[6] = AMD3100 5 mg/kg SC 1 h before collection
[7] = AMD3100 + 30%: 6.5 mg/kg SC 1 h before collection

## c1cc(CN2CCCNCCNCCCNCC2)ccc1CN1CCCNCCNCCCNCC1 [AMD3100]
[1]
  7AAD−/LIN−: 2.39 ×10^6
  KSL: 1.37 ×10^4
  KSL/CD34+: 1.25 ×10^4
  KSL/CD34−: 1.24 ×10^3
  LIN−/kit−/sca1+: 15.74 ×10^4
  LIN−/sca1−/kit+: 13.26 ×10^4
  total number of cells: 4.47 10^7
[2]
  7AAD−/LIN−: 254725
  KSL: 238
  KSL/CD34+: 174
  KSL/CD34−: 72
  LIN−/kit−/sca1+: 40971
  LIN−/sca1−/kit+: 1104
  total number of WBC: 629.95 10^4/ml
[3]; [6]
  7AAD−/LIN− (average number): 2.44 ×10^6
  KSL (average number): 17184
  KSL/CD34+ (average number): 14743
  KSL/CD34− (average number): 2689
  LIN−/kit−/sca1+ (average number): 206061
  LIN−/sca1−/kit+ (average number): 163895
  total number of cells (average): 4.88 10^7
[3]; [7]
  7AAD−/LIN− (average number): 2.26 ×10^6
  KSL (average number): 41791
  KSL/CD34+ (average number): 40873
  KSL/CD34− (average number): 1084
  LIN−/kit−/sca1+ (average number): 148328
  LIN−/sca1−/kit+ (average number): 281722
  total number of cells (average): 3.65 10^7
[4]; [6]
  7AAD−/LIN− (average number): 421616
  KSL (average number): 360
  KSL/CD34+ (average number): 308
  KSL/CD34− (average number): 56
  LIN−/kit−/sca1+ (average number): 23142
  LIN−/sca1−/kit+ (average number): 1932
  total number of WBC (average): 962.40 10^4/ml
[4]; [7]
  7AAD−/LIN− (average number): 302644
  KSL (average number): 907
  KSL/CD34+ (average number): 856
  KSL/CD34− (average number): 63
  LIN−/kit−/sca1+ (average number): 30938
  LIN−/sca1−/kit+ (average number): 1816
  total number of WBC (average): 1111.05 10^4/ml

B1: G-CSF: granulocyte-colony stimulating factor, a cytokine; positive control (protein, UniProt P09919 31-207, looked up)
Granulocyte …: TPLGPASSLPQSFLLKCLEQVRKIQGDGAALQEKLVSECATYKLCHPEELVLLGHSLGIPWAPLSSCPSQALQLAGCLSQLHSGLFLYQGLLQALEGISPELGPTLDTLQLDVADFATTIWQQMEELGMAPALQPTQGAMPAFASAFQRRAGGVLVASHLQSFLEVSYRVLRHLAQP
[5]
  Number of Surviving Mice, Day 21: 5
  Number of Surviving Mice, Day 22: 5
  Number of Surviving Mice, Day 23: 5
  Number of Surviving Mice, Day 24: 5

— patent US20140045747A1, “METHODS FOR INCREASING AND MOBILIZING HEMATOPOIETIC STEM CELLS” (Cleveland Biolabs, Inc., priority 2007, published 2014)
